# According to patent US20200354426A1 (MEDIMMUNE LIMITED, priority 2016, published 2020):
# Like-named read-outs stand apart in the source and are kept apart here. Marks after values point to notes of the source that are not given here. Numbered stars: 1 amine (or outer) side, 2 acyl side, 3 side chain; on linkers, the order of the positions; unused ones are H or OH. Side chains are listed from the residue outwards. Peptide text beside a SMILES is read from it. * marks the point of attachment. γGlu = O=C(O)[C@H](CCC(=O)[*:2])N[*:1]; Palmitoyl = CCCCCCCCCCCCCCCC(=O)*
# How the values were obtained:
# Human GLP1R [1] = target: T1, Human GLP1R (Homo sapiens, UniProt P43220)
# Mouse GLP1R = target: T2, Mouse GLP1R (Mus musculus, UniProt O35659); assay: cAMP assay in 3.2% mouse serum albumin (assay 2); type: cell-based
# T2 construct: expressed in transfected cells
# T2 sequence (O35659 22-463): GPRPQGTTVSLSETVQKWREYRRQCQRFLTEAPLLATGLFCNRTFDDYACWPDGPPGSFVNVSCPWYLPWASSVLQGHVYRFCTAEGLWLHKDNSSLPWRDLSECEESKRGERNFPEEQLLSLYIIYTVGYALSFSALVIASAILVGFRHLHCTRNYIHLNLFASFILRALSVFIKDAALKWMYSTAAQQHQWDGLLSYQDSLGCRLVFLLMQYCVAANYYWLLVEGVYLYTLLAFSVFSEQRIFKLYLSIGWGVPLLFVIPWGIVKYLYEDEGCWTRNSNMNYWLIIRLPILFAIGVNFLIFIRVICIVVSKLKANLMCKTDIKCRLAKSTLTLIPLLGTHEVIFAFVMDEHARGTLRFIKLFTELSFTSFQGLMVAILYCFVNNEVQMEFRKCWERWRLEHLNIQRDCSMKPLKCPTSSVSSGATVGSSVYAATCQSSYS
# Method: Cryopreserved cell stocks were prepared in 1× cell freezing medium-DMSO serum free (Sigma Aldrich) at 2×10^7/vial and stored at −80° C. […] Peptides were serially diluted in DMSO and then diluted 100 fold into DMEM containing serum albumin at stated final concentration. […] Cells were added to the assay plates and incubated for 30 min at room temperature. Following incubation the assay was stopped and cAMP levels measured using the HTRF® dynamic d2 cAMP assay kit available from CisBio Bioassays, as per the manufacture's guidelines. Plates were read on Perkin Elmer ENVISION® fluorescence plate readers. Human and rat serum albumin were purchased from Sigma Aldrich and mouse serum albumin from Equitech Bio Ltd.
# Data was transformed to % Delta F as described in manufacturer's guidelines and analysed by 4-parameter logistic fit to determine EC50 values. […] For instance. […] To compare the balance of activities at the GLP1R and GlucR between different peptides and across different conditions, these can be correlated using the calculation below, where the EC50's are related to those of the natural ligands.
# [2] = Stability testing of peptides in plasma; type: in vitro ADME, rat
# Method: (§1) The stability in plasma of the peptideS […], […], […] and […] was determined as follows. […] The spiked plasma samples were gently mixed and allowed to equilibrate for about 5 minutes before start of experiment. The plasma samples were incubated for 48 hours in a GalaxyR CO2 incubator at 37° C. […] The samples were stored at -70° C. until analysis. Plasma samples were assayed as follows. […] After mixing and centrifugation, 100 μl the supernatant was transferred to a new plate and 1 μl was injected onto an analytical column. The analysis was performed using a μLC-system ([…]) coupled to a medium high resolution mass spectrometer (Perkin Elmer PenTOF) with positive electrospray ionisation. […] Flow: 0.1 ml/min using a slow reversed phase gradient. […] Cleavage products arise from the action of the protease DPP IV in plasma. Both the degradation of the peptides and formation of peptide products were reported in percentage of the initial peptide concentration. Peaks were integrated and % remaining peptide was calculated: […] Levels of deamidation and DPP IV cleavage were low for […] and […].
# Mouse GlucR = target: T3, Mouse GlucR (Mus musculus, UniProt Q61606); assay: cAMP assay in 3.2% mouse serum albumin (assay 2); type: cell-based; conditions: relative potencies vs natural ligands
# T3 construct: expressed in transfected cells
# [3] = system: diet induced obesity (DIO) mouse model; assay: Diet induced obesity (DIO) mouse model, study A; type: in vivo; conditions: for BeHy / FGF21 / HOMA / Hepatic TG / Plasma Cholesterol / Plasma NEFA / Plasma TG: day 14; for Glucose / Insulin: day 14, 4-hour fasting
# Excerpt: Female C57/B16JHsdOla (obtained from Harlan Laboratories. UK) were started on a high fat diet of D12492 (Research Diets, NJ, USA) and a chocolate confection, delicato ball (Delicata Bakverk, Sweden) at 9-11 weeks of age, and were maintained on the diet for 16 weeks prior to arrival to the animal facility, during a three week acclimation period and during drug treatment, caloric content of the two components of the diet is shown in Table 11. The mice were divided into 9 groups (n=5-6), and treatment was started at 29 weeks of age.
# The body weight of the animals was monitored daily throughout the dosing period. At day 14, blood samples for the measurement of plasma glucose and insulin from conscious mice were obtained after a 4-hour fasting period. Mice were then anaesthetized using isoflurane and terminal blood was collected from the capillary bed behind the eye. The following parameters were measured: blood chemistry measurements of triglycerides, total cholesterol, non-esterified fatty acids (NEFA), beta-hydroxybutyrate and fibroblast growth factor 21 (FGF21) (Tables 14 and 15 below).
# [4] = Stability testing of peptides in plasma; type: in vitro ADME, human
# Method: as §1
# Human GLP1R [5] = target: T1, Human GLP1R; assay: cAMP activity assay in assay medium (assay 1); type: cell-based; parameters: expressed in transfected cells; conditions: assay medium
# Excerpt: Biological Activity of Peptides in Cell-Based cAMP Activity Assay (Assay 1):
# All sample dilutions were made in duplicate.
# [6] = Peptide solubility in buffers (A280); type: physicochemical
# Excerpt: G730 was soluble in a pH range of 4.5 to 8.0.
# T1 sequence (P43220 24-463): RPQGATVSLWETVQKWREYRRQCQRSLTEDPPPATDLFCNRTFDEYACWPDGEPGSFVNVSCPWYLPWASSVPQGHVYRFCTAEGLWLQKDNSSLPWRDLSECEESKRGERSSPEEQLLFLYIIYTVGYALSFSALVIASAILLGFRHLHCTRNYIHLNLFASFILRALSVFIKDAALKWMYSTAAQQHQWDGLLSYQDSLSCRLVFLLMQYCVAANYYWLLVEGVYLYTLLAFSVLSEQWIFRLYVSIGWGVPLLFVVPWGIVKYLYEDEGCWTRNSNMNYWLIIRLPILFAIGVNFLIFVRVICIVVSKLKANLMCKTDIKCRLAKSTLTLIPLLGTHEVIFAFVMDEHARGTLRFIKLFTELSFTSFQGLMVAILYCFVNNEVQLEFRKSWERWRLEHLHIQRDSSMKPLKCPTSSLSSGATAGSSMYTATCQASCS
# T3 sequence (Q61606 27-485): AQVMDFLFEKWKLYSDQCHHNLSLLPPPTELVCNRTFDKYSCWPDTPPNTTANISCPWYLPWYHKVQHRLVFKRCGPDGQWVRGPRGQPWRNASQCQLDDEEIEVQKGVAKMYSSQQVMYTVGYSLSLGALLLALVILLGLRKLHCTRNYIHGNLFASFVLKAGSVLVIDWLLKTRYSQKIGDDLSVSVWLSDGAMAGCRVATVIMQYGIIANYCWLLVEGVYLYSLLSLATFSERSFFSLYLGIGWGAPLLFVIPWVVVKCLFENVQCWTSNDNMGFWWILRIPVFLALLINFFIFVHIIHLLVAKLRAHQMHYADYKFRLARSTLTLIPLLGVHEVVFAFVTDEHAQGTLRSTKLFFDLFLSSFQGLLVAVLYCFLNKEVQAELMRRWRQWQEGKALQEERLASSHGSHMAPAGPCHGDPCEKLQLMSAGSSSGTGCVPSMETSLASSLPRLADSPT
smiles,measurement,setting,value
CCCCCCCCCCCCCCCC(=O)N[C@@H](CCC(=O)NCCCC[C@H](NC(=O)[C@H](CCCCN)NC(=O)[C@H](CO)NC(=O)[C@H](Cc1ccc(O)cc1)NC(=O)[C@H](CC(=O)O)NC(=O)[C@H](CO)NC(=O)[C@@H](NC(=O)[C@H](Cc1ccccc1)NC(=O)[C@@H](NC(=O)CNC(=O)[C@H](CCC(N)=O)NC(=O)[C@H](CO)NC(=O)[C@@H](N)Cc1c[nH]cn1)[C@@H](C)O)[C@@H](C)O)C(=O)N[C@@H](CC(C)C)C(=O)N[C@@H](CC(=O)O)C(=O)N[C@@H](CO)C(=O)N[C@@H](CCC(=O)O)C(=O)N[C@@H](CCCNC(=N)N)C(=O)N[C@@H](C)C(=O)N[C@@H](CCCNC(=N)N)C(=O)N[C@@H](CC(=O)O)C(=O)N[C@@H](Cc1ccccc1)C(=O)N[C@H](C(=O)N[C@@H](C)C(=O)N[C@@H](Cc1c[nH]c2ccccc12)C(=O)N[C@@H](CC(C)C)C(=O)N[C@H](C(=O)N[C@@H](C)C(=O)NCC(=O)NCC(N)=O)C(C)C)C(C)C)C(=O)O [Peptide G730] (H-HSQGTFTSDYSKK([γGlu-Palmitoyl])LDSERARDFVAWLVAGG-NH2; N-terminus assumed),free peptide at 4.4% HSA,Human GLP1R [1],0.85%
same,EC50,Mouse GLP1R,1.1 nM
same,% +1 prod,[2],58%
same,% DPP cleaved product/+1 DPP cleaved product,[2],2%
same,"remaining at 24 h, 2 μmol/L","[2]; rat, plasma",24%
same,Mouse GlucR/GLP1R Ratio,Mouse GlucR,0.04
same,BW day 14 (% change of vehicle mean),[3]; 10 nmol/kg sc twice daily 14 days,−7.5%
same,BeHy,[3]; 10 nmol/kg sc twice daily,428 µmol/L
same,FGF21,[3]; 10 nmol/kg sc twice daily,1963 pg/mL
same,HOMA,[3]; 10 nmol/kg sc twice daily,3.3
same,Hepatic TG,[3]; 10 nmol/kg sc twice daily,9.0 * g TB/100 g tissue
same,Plasma Cholesterol,[3]; 10 nmol/kg sc twice daily,3.10 mM
same,Plasma NEFA,[3]; 10 nmol/kg sc twice daily,0.28 Mm
same,Plasma TG,[3]; 10 nmol/kg sc twice daily,0.21 mM
same,Glucose,[3]; 10 nmol/kg sc twice daily,7.2 mM
same,Insulin,[3]; 10 nmol/kg sc twice daily,0.4 nM
same,BW day 14 (% change of vehicle mean),[3]; 20 nmol/kg sc twice daily 14 days,−15.6%
same,BeHy,[3]; 20 nmol/kg sc twice daily,750 µmol/L
same,FGF21,[3]; 20 nmol/kg sc twice daily,2236 pg/mL
same,HOMA,[3]; 20 nmol/kg sc twice daily,1.7
same,Hepatic TG,[3]; 20 nmol/kg sc twice daily,17.7 g TB/100 g tissue
same,Plasma Cholesterol,[3]; 20 nmol/kg sc twice daily,2.46 mM
same,Plasma NEFA,[3]; 20 nmol/kg sc twice daily,0.25 Mm
same,Plasma TG,[3]; 20 nmol/kg sc twice daily,0.20 mM
same,Glucose,[3]; 20 nmol/kg sc twice daily,6.7 mM
same,Insulin,[3]; 20 nmol/kg sc twice daily,0.2 nM
same,BeHy,[3]; 50 nmol/kg sc twice daily,1477 µmol/L
same,FGF21,[3]; 50 nmol/kg sc twice daily,5294 pg/mL
same,HOMA,[3]; 50 nmol/kg sc twice daily,2.1
same,Hepatic TG,[3]; 50 nmol/kg sc twice daily,28.1 g TB/100 g tissue
same,Plasma Cholesterol,[3]; 50 nmol/kg sc twice daily,2.19 mM
same,Plasma NEFA,[3]; 50 nmol/kg sc twice daily,0.32 Mm
same,Plasma TG,[3]; 50 nmol/kg sc twice daily,0.23 mM
same,Glucose,[3]; 50 nmol/kg sc twice daily,5.9 mM
same,Insulin,[3]; 50 nmol/kg sc twice daily,0.3 nM
same,body weight over the 14 day dosing period,"[3]; DIO mice, FIGS. 1-4",dose dependent and continuous weight loss
same,% +1 prod,[4],<1%
same,% DPP cleaved product/+1 DPP cleaved product,[4],<1%
same,"remaining at 24 h, 2 μmol/L","[4]; human, plasma",100%
same,EC50,"Human GLP1R [5]; Table 2, C-terminal amide peptides, read-out: Human GLP1R EC50",0.018 nM
same,EC50,"Human GLP1R [5]; Table 4, read-out: hGLP1R EC50",0.0395 nM
same,"Conc. (A280), target 1 mg/ml","[6]; Glutamate pH 4.5, 100 mM",830 µg/mL
same,"Conc. (A280), target 1 mg/ml","[6]; Phosphate pH 6.5, 100 mM",830 µg/mL
same,"Conc. (A280), target 1 mg/ml","[6]; Phosphate pH 7.5, 100 mM",850 µg/mL
same,"Conc. (A280), target 1 mg/ml","[6]; Phosphate, pH = 6, 100 mM",140 µg/mL
same,"Conc. (A280), target 1 mg/ml","[6]; Tris pH 7.5, 100 mM",830 µg/mL
same,"Conc. (A280), target 1 mg/ml","[6]; Tris pH 8.0, 100 mM",1100 µg/mL
